The source of these data is patent US7041698B2, “Hepatitis C virus inhibitors” (Bristol-Myers Squibb Company, priority 2002, dated 2006).

pIC50: −log10 of the molar value. Some results are limits rather than exact numbers.

Experiment [1] has as its system T1, human pancreatic chymotrypsin.
T1 construct: human pancreatic chymotrypsin
Briefly: Specificity assay, chymotrypsin. Type of experiment: biochemical. Particulars: 2 hr pre-incubation at RT. On the procedure: The specificities of compounds of the present invention were determined against a variety of serine proteases: human sputum elastase (HS), porcine pancreatic elastase (PPE) and human pancreatic chymotrypsin and one cysteine protease: human liver cathepsin B. In all cases a 96-well plate format protocol using calorimetric p-nitroaniline (pNA) substrate specific for each enzyme was used as described previously (Patent WO 00/09543) with some modifications to the serine protease assays. All enzymes were purchased from Sigma while the substrates were from Bachem.
Each assay included a 2 hr enzyme-inhibitor pre-incubation at RT followed by addition of substrate and hydrolysis to ˜30% conversion as measured on a Spectramax Pro microplate reader. Compound concentrations varied from 100 to 0.4 μM depending on their potency. […]
The percentage of inhibition was calculated using the formula: [1-((UVinh−UVblank)/(UVctl−UVblank))]×100 […]

Experiment [2] concerns the target T2, NS3/4A J4L6S strain (Hepatitis C virus genotype 1b, UniProt O92972, C1454S/C1711G).
T2 construct: DNA encoding the recombinant HCV NS3/4A protease complex (amino acids 1027 to 1711) for these strains; His tag (inferred from pET21b vector and Ni-NTA purification); made in house; host or cells: Escherichia coli BL21 (DE3)
Briefly: Recombinant HCV NS3/4A protease complex FRET peptide assay, J4L6S strain. Type of experiment: biochemical, HCV genotype 1b. An excerpt: (§1) Recombinant HCV NS3/4A Protease Complex FRET Peptide Assay
(§2) The purpose of this in vitro assay was to measure the inhibition of HCV NS3 protease complexes, derived from the BMS, H77C or J416S strains, as described below, by compounds of the present invention. This assay provides an indication of how effective compounds of the present invention would be in inhibiting HCV proteolytic activity.
(§3) Serum from an HCV-infected patient was obtained from Dr. T. Wright, San Francisco Hospital. An engineered full-length cDNA (compliment deoxyribonucleic acid) template of the HCV genome (BMS strain) was constructed from DNA fragments obtained by reverse transcription-PCR (RT-PCR) of serum RNA (ribonucleic acid) and using primers selected on the basis of homology between other genotype 1a strains. From the determination of the entire genome sequence, a genotype 1a was assigned to the HCV isolate according to the classification of Simmonds et al. (See P Simmonds, K A Rose, S Graham, S W Chan, F McOmish, B C Dow, E A Follett, P L Yap and H Marsden, J. Clin. Microbiol., 31(6), 1493–1503 (1993)). […]

Experiment [3] concerns the target T3, NS3/4A BMS strain (UniProt P27958, C1454S/C1711G, species not given/STRAIN_BMS).
T3 construct: fused on or other part: Three-lysine solubilising tail at the C-terminus of NS4A
Briefly: Recombinant HCV NS3/4A protease complex FRET peptide assay, BMS strain. Type of experiment: biochemical, HCV genotype 1a. The note with it: read-out: IC50 against the NS3/4A BMS strain in the enzyme assay.
Text: as §1, §2, §3

T2 sequence (O92972 1027-1711 C1454S/C1711G): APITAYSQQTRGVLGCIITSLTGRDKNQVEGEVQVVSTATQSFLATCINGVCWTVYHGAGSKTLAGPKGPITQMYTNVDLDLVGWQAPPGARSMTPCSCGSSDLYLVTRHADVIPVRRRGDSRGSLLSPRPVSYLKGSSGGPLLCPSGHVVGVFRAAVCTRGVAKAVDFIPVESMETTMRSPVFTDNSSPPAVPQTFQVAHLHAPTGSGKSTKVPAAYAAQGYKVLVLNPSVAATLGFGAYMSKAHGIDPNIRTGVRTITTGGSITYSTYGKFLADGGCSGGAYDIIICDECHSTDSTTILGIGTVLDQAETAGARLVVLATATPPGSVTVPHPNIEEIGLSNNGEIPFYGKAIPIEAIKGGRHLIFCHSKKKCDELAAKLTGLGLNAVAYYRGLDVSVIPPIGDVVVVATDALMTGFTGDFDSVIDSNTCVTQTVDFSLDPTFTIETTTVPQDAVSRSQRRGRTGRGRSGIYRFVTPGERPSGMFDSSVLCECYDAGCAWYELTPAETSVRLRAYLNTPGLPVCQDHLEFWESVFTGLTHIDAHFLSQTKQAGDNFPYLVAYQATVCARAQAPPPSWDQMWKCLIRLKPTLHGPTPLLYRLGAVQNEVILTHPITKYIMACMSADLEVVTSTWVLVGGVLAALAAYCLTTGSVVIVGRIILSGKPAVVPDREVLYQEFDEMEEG

As to `C=CC1C[C@]1(NC(=O)[C@@H]1C[C@@H](OC(=O)Nc2ccccc2-c2ccccc2)CN1C(=O)[C@@H](NC(=O)OC(C)(C)C)C(C)(C)C)C(=O)NS(=O)(=O)C1CC1` (stereo partly drawn) [Compound 8, BocNH-P3(t-BuGly)-P2(Hyp(O—CO(NH-biphen-2-yl)))-P1(1R,2S VinylAcca)—CONHSO2Cyclopropane], the pIC50 in experiment [1] was less than 4.00; in experiment [2], 8.02; in experiment [3], 7.29.
